This is an account of results in patent US20180318287A1, “Imidazo[4,5-c]quinolin-2-one Compounds and Their Use in Treating Cancer” (ASTRAZENECA AB, priority 2015, published 2018).

One test concerns the target T1, ATR kinase (Homo sapiens, UniProt Q13535).
T1 construct: endogenous in cells; host or cells: HT29 cells (ECACC #85061109)
Description: Assay b): ATR cellular potency (pChk1 Ser345 in HT29 cells after 4NQO). The class given is cell-based. As to conditions: HT29 cells, 4NQO, pChk1 Ser345; Table 2; read-out: Assay b) ATR Cell IC50. The method, then:
ATR is a PI 3-kinase-related kinase which phosphorylates multiple substrates on serine or threonine residues in response to DNA damage during or replication blocks. Chk1, a downstream protein kinase of ATR, plays a key role in DNA damage checkpoint control. Activation of Chk1 involves phosphorylation of Ser317 and Ser345 (the latter regarded as the preferential target for phosphorylation/activation by ATR).
The following morning compound of Formula (I) in 100% DMSO were added to assay plates by acoustic dispensing. After 1 h incubation at 37° C. and 5% CO2, 40 nl of 3 mM 4NQO in 100% DMSO was added to all wells by acoustic dispensing, except minimum control wells which were left untreated with 4NQO to generate a null response control. Plates were returned to the incubator for a further 1 h. […] Then 20 μl of 0.1% Triton X100 in PBS was added and incubated for 10 minutes at r.t., to permeabalise cells. Then the plates were washed once with 50 μl/well PBS, using a Biotek EL405 plate washer.
After 2 h incubation at r.t., the plates were washed three times with 50 μl/well PBS, using a Biotek EL405 plate washer, and plates were then sealed with black plate seals until read. Plates were read using an ArrayScan VTI instrument, using an XF53 filter with 10× objective.

The target of the next test is T2, ATM kinase (Homo sapiens, UniProt Q13315).
T2 construct: endogenous in cells; host or cells: HT29 cells (ECACC #85061109)
Description: Assay a): ATM cellular potency (pATM Ser1981 in irradiated HT29 cells). As to conditions: HT29 cells, X-ray irradiation, pATM Ser1981; Table 2; read-out: Assay a) ATM Cell IC50. The format is cell-based. The method, then: Most ATM molecules in the cell are rapidly phosphorylated on this site after doses of radiation as low as 0.5 Gy, and binding of a phosphospecific antibody is detectable after the introduction of only a few DNA double-strand breaks in the cell.
The rationale of the p ATM assay is to identify inhibitors of ATM in cells. HT29 cells are incubated with test compounds for 1 hr prior to X-ray-irradiation. 1 h later the cells are fixed and stained for p ATM (Ser1981). The fluorescence is read on the arrayscan imaging platform.
The following morning compounds of Formula (I) in 100% DMSO were added to assay plates by acoustic dispensing. After 1 h incubation at 37° C. and 5% CO2, plates (up to 6 at a time) were irradiated using the X-RAD 320 instrument (PXi) with equivalent to ˜600cGy. Plates were returned to the incubator for a further 1 h. […] Then 20 μl of 0.1% Triton X100 in PBS was added and incubated for 20 minutes at r.t., to permeabalise cells. Then the plates were washed once with […] PBS, using a Biotek EL405 plate washer.
After 1 h incubation at r.t., the plates were washed three times with 50 μl/well PBS, using a Biotek EL405 plate washer, and plates were sealed and kept in PBS at 4° C. until read. Plates were read using an ArrayScan VTI instrument, using an XF53 filter with 10× objective.

By IC50 is commonly meant the midpoint of a concentration-inhibition curve.

T1 sequence (Q13535 whole entry): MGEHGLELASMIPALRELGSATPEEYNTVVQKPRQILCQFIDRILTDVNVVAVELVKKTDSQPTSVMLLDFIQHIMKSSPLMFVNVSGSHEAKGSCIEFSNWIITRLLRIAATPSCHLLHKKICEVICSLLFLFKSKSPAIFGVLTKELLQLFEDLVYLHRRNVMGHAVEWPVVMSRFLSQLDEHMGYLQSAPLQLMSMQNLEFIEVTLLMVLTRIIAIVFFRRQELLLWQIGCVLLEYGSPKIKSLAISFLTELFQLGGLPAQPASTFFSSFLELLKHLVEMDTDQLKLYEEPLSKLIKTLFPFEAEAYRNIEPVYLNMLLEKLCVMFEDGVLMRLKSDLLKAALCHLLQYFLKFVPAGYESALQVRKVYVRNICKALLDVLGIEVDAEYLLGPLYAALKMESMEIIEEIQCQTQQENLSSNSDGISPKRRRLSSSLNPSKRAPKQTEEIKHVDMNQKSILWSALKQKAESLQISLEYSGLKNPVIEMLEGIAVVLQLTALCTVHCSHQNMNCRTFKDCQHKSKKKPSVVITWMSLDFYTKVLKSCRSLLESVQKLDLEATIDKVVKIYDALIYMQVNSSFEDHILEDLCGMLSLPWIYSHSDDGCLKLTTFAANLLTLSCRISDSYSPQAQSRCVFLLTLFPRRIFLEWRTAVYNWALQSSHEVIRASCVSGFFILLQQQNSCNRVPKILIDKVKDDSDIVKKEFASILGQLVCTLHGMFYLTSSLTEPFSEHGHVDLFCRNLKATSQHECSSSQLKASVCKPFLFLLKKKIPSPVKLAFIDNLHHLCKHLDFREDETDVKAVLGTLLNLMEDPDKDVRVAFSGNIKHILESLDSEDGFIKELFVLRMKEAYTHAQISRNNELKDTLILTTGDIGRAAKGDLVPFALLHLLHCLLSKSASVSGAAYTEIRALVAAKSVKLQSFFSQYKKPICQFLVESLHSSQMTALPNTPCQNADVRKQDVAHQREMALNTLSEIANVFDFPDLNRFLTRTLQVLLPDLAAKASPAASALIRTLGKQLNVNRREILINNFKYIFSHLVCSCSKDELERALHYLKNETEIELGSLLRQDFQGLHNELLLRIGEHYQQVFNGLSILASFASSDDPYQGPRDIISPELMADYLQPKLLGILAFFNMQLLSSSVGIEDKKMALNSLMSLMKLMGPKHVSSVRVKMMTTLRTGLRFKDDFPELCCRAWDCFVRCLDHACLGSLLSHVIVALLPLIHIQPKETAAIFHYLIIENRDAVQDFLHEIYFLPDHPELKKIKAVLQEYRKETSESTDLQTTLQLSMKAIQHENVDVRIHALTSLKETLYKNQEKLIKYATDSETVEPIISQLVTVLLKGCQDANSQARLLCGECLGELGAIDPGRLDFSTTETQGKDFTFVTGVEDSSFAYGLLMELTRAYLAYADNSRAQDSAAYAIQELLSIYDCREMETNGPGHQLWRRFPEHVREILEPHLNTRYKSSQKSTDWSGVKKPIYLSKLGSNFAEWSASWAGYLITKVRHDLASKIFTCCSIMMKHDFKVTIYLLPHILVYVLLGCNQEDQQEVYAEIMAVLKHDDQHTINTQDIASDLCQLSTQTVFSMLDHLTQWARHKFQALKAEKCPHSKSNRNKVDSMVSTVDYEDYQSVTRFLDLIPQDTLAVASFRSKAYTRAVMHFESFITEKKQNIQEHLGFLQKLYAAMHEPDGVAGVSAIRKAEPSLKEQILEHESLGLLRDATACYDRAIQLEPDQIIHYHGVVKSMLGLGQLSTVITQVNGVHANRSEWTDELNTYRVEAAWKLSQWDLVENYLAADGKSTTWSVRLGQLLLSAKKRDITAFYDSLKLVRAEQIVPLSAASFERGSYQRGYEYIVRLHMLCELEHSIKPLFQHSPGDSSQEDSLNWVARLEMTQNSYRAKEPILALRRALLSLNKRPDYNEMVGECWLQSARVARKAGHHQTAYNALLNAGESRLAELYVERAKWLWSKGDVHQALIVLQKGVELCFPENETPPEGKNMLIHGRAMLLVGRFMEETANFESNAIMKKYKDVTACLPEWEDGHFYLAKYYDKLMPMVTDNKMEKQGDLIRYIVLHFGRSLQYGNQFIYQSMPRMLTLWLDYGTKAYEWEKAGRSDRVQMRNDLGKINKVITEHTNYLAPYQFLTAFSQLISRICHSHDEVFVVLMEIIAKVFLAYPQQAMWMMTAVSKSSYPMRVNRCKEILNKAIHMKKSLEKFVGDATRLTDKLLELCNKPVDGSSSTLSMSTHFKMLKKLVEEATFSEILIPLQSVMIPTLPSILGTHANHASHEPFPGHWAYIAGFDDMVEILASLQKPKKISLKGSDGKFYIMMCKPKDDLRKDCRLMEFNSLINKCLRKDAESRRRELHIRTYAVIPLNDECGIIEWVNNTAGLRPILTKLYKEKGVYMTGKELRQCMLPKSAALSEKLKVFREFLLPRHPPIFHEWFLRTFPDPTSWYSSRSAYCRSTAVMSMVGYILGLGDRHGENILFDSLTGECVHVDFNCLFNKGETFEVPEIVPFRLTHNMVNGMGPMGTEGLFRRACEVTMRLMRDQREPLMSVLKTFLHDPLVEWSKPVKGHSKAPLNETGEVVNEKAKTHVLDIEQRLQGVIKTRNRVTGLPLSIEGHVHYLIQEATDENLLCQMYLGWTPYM
T1 sequence (Q8WXE1 whole entry partner): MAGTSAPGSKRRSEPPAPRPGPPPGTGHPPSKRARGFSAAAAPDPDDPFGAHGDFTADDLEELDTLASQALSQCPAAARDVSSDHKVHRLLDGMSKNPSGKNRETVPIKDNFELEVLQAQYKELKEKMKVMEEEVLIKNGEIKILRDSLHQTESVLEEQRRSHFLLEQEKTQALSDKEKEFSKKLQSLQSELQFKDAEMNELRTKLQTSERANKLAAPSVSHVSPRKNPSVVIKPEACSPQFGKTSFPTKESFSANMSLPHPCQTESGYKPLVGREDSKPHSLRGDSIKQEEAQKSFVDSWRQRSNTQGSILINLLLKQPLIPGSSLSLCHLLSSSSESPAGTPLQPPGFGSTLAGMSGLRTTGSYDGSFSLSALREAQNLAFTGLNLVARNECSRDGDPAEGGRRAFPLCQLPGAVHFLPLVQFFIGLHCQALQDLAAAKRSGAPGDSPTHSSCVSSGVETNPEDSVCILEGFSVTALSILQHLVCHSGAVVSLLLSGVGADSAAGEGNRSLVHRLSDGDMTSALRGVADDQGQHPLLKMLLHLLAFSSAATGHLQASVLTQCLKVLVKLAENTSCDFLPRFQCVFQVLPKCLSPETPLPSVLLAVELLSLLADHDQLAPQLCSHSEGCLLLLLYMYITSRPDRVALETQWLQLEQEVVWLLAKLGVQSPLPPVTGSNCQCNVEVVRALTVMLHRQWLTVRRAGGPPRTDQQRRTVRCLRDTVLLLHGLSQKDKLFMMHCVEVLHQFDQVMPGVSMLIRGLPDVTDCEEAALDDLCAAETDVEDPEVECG

In the case of `CO[C@@H]1CC[C@@H](n2c(=O)n(C)c3cnc4cc(F)c(-c5ccc(OCCCN(C)C)cc5)cc4c32)C1` (single isomer, unassigned) [Example 14, 8-[4-[3-(dimethylamino)propoxy]phenyl]-7-fluoro-1-[trans-3-methoxycyclopentyl]-3-methyl-imidazo[4,5-c]quinolin-2-one], the IC50 was above 29400 nM on ATR kinase and 1.37 nM at ATM kinase.
For the compound `CO[C@H]1CC[C@H](n2c(=O)n(C)c3cnc4ccc(-c5ccc(OCCCN6CCCC6)cc5)cc4c32)CC1` [Example 22, 1-(trans-4-methoxycyclohexyl)-3-methyl-8-[4-(3-pyrrolidin-1-ylpropoxy)phenyl]imidazo[4,5-c]quinolin-2-one], the values for the concentration for half-maximal inhibition (IC50) on ATR kinase and at ATM kinase were above 10000 nM and 0.458 nM, respectively.
Take `CC(C)n1c(=O)n(C)c2cnc3ccc(-c4ccc(OCCCN5CCCC5)cc4)cc3c21` [Example 2, 1-isopropyl-3-methyl-8-[4-(3-pyrrolidin-1-ylpropoxy)phenyl]imidazo[4,5-c]quinolin-2-one]: the IC50 on ATR kinase was above 30000 nM; on ATM kinase, 0.984 nM.
As to `CO[C@@H]1CC[C@H](n2c(=O)n(C)c3cnc4cc(F)c(-c5ccc(OCCCN(C)C)cc5)cc4c32)C1` (single isomer, unassigned) [Example 36, 8-[4-[3-(dimethylamino)propoxy]phenyl]-7-fluoro-1-[cis-3-methoxycyclopentyl]-3-methyl-imidazo[4,5-c]quinolin-2-one], the IC50 at ATR kinase was above 30000 nM; on ATM kinase, 5.77 nM.
The matching figures for `CO[C@H]1CCC[C@H](n2c(=O)n(C)c3cnc4ccc(-c5ccc(OCCCN(C)C)cc5)cc4c32)C1` (single isomer, unassigned) [Example 28, 8-[4-[3-(dimethylamino)propoxy]phenyl]-1-[trans-3-methoxycyclohexyl]-3-methyl-imidazo[4,5-c]quinolin-2-one]: 11300 nM and 0.285 nM.
For the compound `Cn1c(=O)n([C@@H]2CCCOC2)c2c3cc(-c4ccc(OCCCN5CCCC5)cc4)ccc3ncc21` [Example 16, 3-methyl-8-[4-(3-pyrrolidin-1-ylpropoxy)phenyl]-1-[(3R)-tetrahydropyran-3-yl]imidazo[4,5-c]quinolin-2-one], the IC50 was above 26000 nM on ATR kinase and 0.797 nM at ATM kinase.
On to `CO[C@H]1CC[C@@H](n2c(=O)n(C)c3cnc4ccc(-c5ccc(OCCCN6CCCC6)cc5)cc4c32)CC1` [Example 27, 1-(cis-4-methoxycyclohexyl)-3-methyl-8-[4-(3-pyrrolidin-1-ylpropoxy)phenyl]imidazo[4,5-c]quinolin-2-one], for which the 50% inhibitory concentration (IC50) is above 18500 nM on ATR kinase and 0.492 nM at ATM kinase.
Take `CO[C@H]1CCC[C@H](n2c(=O)n(C)c3cnc4ccc(-c5ccc(OCCCN6CCCC6)cc5)cc4c32)C1` (single isomer, unassigned) [Example 31, 1-[trans-3-methoxycyclohexyl]-3-methyl-8-[4-(3-pyrrolidin-1-ylpropoxy)phenyl]imidazo[4,5-c]quinolin-2-one]: the IC50 on ATR kinase came out at 10900 nM; on ATM kinase, 0.706 nM.
The matching figures for `Cn1c(=O)n(C2CCOCC2)c2c3cc(-c4ccc(OCCCN5CCCC5)cc4)c(F)cc3ncc21` [Example 46, 7-fluoro-3-methyl-8-[4-(3-pyrrolidin-1-ylpropoxy)phenyl]-1-tetrahydropyran-4-yl-imidazo[4,5-c]quinolin-2-one]: 16800 nM and 2 nM.
The matching figures for `CO[C@H]1CCC[C@H](n2c(=O)n(C)c3cnc4ccc(-c5ccc(OCCCN(C)C)cc5)cc4c32)C1` (single isomer, unassigned) [Example 29, 8-[4-[3-(dimethylamino)propoxy]phenyl]-1-[trans-3-methoxycyclohexyl]-3-methyl-imidazo[4,5-c]quinolin-2-one]: 12800 nM and 1.64 nM.
The matching figures for `CO[C@H]1CC[C@H](n2c(=O)n(C)c3cnc4cc(F)c(-c5ccc(OCCCN(C)C)cc5)cc4c32)C1` (single isomer, unassigned) [Example 13, 8-[4-[3-(dimethylamino)propoxy]phenyl]-7-fluoro-1-[trans-3-methoxycyclopentyl]-3-methyl-imidazo[4,5-c]quinolin-2-one]: above 30000 nM and 1.63 nM.
Regarding `CO[C@H]1CC[C@H](n2c(=O)n(C)c3cnc4ccc(-c5ccc(OCCCN6CCCCC6)cc5)cc4c32)C1` [Example 40, 1-[(1S,3S)-3-methoxycyclopentyl]-3-methyl-8-[4-[3-(1-piperidyl)propoxy]phenyl]imidazo[4,5-c]quinolin-2-one], at ATM kinase, the IC50 is 0.349 nM.
As for `CC(C)n1c(=O)n(C)c2cnc3ccc(-c4ccc(OCCCN5CCC5)cc4)cc3c21` [Example 3, 8-[4-[3-(azetidin-1-yl)propoxy]phenyl]-1-isopropyl-3-methyl-imidazo[4,5-c]quinolin-2-one], the results for the IC50 at ATR kinase and at ATM kinase were above 30000 nM and 0.173 nM, respectively.
Regarding `CO[C@H]1CC[C@H](n2c(=O)n(C)c3cnc4ccc(-c5ccc(OCCCN(C)C)cc5)cc4c32)CC1` [Example 26, 8-[4-[3-(dimethylamino)propoxy]phenyl]-1-(trans-4-methoxycyclohexyl)-3-methyl-imidazo[4,5-c]quinolin-2-one], the IC50 on ATR kinase is above 30000 nM; at ATM kinase it was 0.467 nM.
The matching figures for `CN(C)CCCOc1ccc(-c2cc3c(cc2F)ncc2c3n([C@H]3CCCOC3)c(=O)n2C)cc1` [Example 10, 8-[4-[3-(dimethylamino)propoxy]phenyl]-7-fluoro-3-methyl-1-[(3S)-tetrahydropyran-3-yl]imidazo[4,5-c]quinolin-2-one]: above 30000 nM and 3.92 nM.
Turning to `CC(C)n1c(=O)n(C)c2cnc3ccc(-c4ccc(OCCCN(C)C)cc4)cc3c21` [Example 1, 8-[4-[3-(Dimethylamino)propoxy]phenyl]-1-isopropyl-3-methyl-imidazo[4,5-c]quinolin-2-one], the IC50 on ATR kinase is above 30000 nM.
`CO[C@@H]1CCC[C@H](n2c(=O)n(C)c3cnc4ccc(-c5ccc(OCCCN(C)C)cc5)cc4c32)C1` (relative stereo) [Example 32, 8-[4-[3-(dimethylamino)propoxy]phenyl]-1-[cis-3-methoxycyclohexyl]-3-methyl-imidazo[4,5-c]quinolin-2-one]: the values for the IC50 at ATR kinase and at ATM kinase were above 30000 nM and 2.37 nM, respectively.
The matching figures for `CO[C@H]1C[C@@H](n2c(=O)n(C)c3cnc4ccc(-c5ccc(OCCCN6CCCC6)cc5)cc4c32)C1` [Example 41, 1-(cis-3-methoxycyclobutyl)-3-methyl-8-[4-(3-pyrrolidin-1-ylpropoxy)phenyl]imidazo[4,5-c]quinolin-2-one]: above 28800 nM and 0.23 nM.
Consider `CO[C@@H]1CCC[C@H](n2c(=O)n(C)c3cnc4ccc(-c5ccc(OCCCN6CCCC6)cc5)cc4c32)C1` (relative stereo) [Example 38, 1-[cis-3-methoxycyclohexyl]-3-methyl-8-[4-(3-pyrrolidin-1-ylpropoxy)phenyl]imidazo[4,5-c]quinolin-2-one], for which the values for the IC50 at ATR kinase and at ATM kinase were 19200 nM and 2.29 nM, respectively.
